“And” between values parts separate entries of the source, which are not always exact repeats. Equal entries are not always repeated.
Key:
[1] = Intrinsic clearance in mouse hepatocytes; type: in vitro ADME
[2] = system: SREBP; test: SREBP-responsive; conditions: luciferase reporter assay, CHO-K1 cells
[3] = Parallel artificial membrane permeability assay; conditions: for passive permeability through artificial membrane (in words): PAMPA
[4] = system: SREBP-responsive genes in DU145 cells; test: Real-time RT-PCR of SREBP-responsive genes in DU145 cells; type: cell-based, human
[5] = system: ob/ob mice; conditions: male ob/ob mice, oral in chow, 8 wk

**Q.** Which “metabolic stability (in words)” value [1] does the source give for `CCCc1cc(-c2nc(-c3ccc(C)cc3)cs2)ccn1` [Compound 1, fatostatin] here?
**A.** low metabolic stability

**Q.** For `CCCc1cc(-c2nc(-c3ccccc3)cs2)ccn1` [Compound 5a], which “decrease in potency relative to fatostatin” value [2] is on record?
**A.** fourfold

**Q.** With `Cc1ccc(-c2csc(-c3ccccc3)n2)cc1` [Compound 12] as the molecule, how does the “decrease in potency relative to fatostatin” value [2] read?
**A.** 3.3 fold

**Q.** With `CCCc1cc(-c2ccc(-c3ccc(C)cc3)cc2)ccn1` [Compound 15] as the molecule, how does the “activity in reporter assay (in words)” value [2] read?
**A.** large loss of activity

**Q.** What does the source list for `CCCc1cc(-c2nc(-c3ccc(NC(C)C)cc3)cs2)ccn1` [Compound 20, N-Isopropyl-4-(2-(2-propylpyridin-4-yl)thiazol-4-yl)aniline]?
**A.** metabolic stability (in words) [1]: low metabolic stability; passive permeability through artificial membrane (in words) [3]: moderate

**Q.** For `CCCc1cc(-c2nc(-c3ccc(NS(C)(=O)=O)cc3)cs2)ccn1` [Compound 24, N-(4-(2-(2-Propylpyridin-4-yl)thiazol-4-yl)phenyl)methanesulfonamide], which “effect on transcription of three control genes unrelated to SREBP” value ([4]; RPL13A, B2M, GAPDH) is on record?
**A.** no significant effect

**Q.** What about the “downregulation of transcription of nine SREBP-responsive genes” value ([4]; real-time RT-PCR, all nine genes) of the same molecule?
**A.** at least 25%

**Q.** What about the “metabolic stability (in words)” value [1] of the same molecule?
**A.** moderately stable

**Q.** And the “less weight than control mice” value [5]?
**A.** 8–9%

**Q.** What about the “passive permeability through artificial membrane (in words)” value [3] of the same molecule?
**A.** high

**Q.** For `CC(=O)CC(c1ccccc1)c1c(O)c2ccccc2oc1=O` (stereo not drawn) [Warfarin, reference compound], which “Reference PAMPA Papp” value ([3]; Warfarin 10 μM, control for membrane integrity, run alongside each compound) is on record?
**A.** 5.34 10^−6 cm/sec and 5.58 10^−6 cm/sec
